# Measured values taken from patent US12110311B2, “Cyclic deoxyribonucleotide compounds” (NUCORION PHARMACEUTICALS, INC., priority 2019, dated 2024).
# Read-outs that look alike come from different tables or passages of the source.
# Columns and labels:
# [1] = Tissue distribution following oral administration in rats (prodrug and metabolite levels in liver and blood); format: in vivo; details: rat, 1 hour after oral administration, 5 mg/kg
# Method: The liver specificity of the disclosed compounds is compared relative to a corresponding active compound in the liver and other organs that could be targets of toxicity.
# Reference compounds and the cyclic deoxyribonucleotide compounds are administered at 5-50 mg/kg to fasted rats by oral gavage. Plasma concentrations of the metabolites, and parent compounds in circulation and in the hepatic portal vein are determined by HPLC-UV, and the liver, small intestine, and other organ concentrations are measured by LC-MS using the standard chromatography method.
# [2] = in vivo; cited from earlier work
# [3] = prodrug level in blood, read-out: Drug blood
# [4] = prodrug level in liver, read-out: Drug liver
"concentration at 1 h [1, 3]","concentration at 1 h [1, 4]",Structure (SMILES),biological half-life [2]
2.7 ng/mL,9.3 ng/g,"CCCOC(=O)c1ccccc1COP1(=O)OC[C@H]2O[C@@H](n3cc(F)c(=O)[nH]c3=O)C[C@@H]2O1 (stereo partly drawn) [Compound 126, Propyl 2-((((4aR,6R,7aS)-6-(5-fluoro-2,4-dioxo-3,4-dihydropyrimidin-1(2H)-yl)-2-oxidotetrahydro-4H-furo[3,2-d][1,3,2]dioxaphosphinin-2-yl)oxy)methyl)benzoate]",
,,O=c1[nH]cc(F)c(=O)[nH]1 [5-Fluorouracil],~16 minutes
11 ng/mL,668 ng/g,"CC(C)OC(=O)c1ccccc1COP1(=O)OC[C@H]2O[C@@H](n3cc(F)c(=O)[nH]c3=O)C[C@@H]2O1 (stereo partly drawn) [Compound 124, Isopropyl 2-((((4aR,6R,7aS)-6-(5-fluoro-2,4-dioxo-3,4-dihydropyrimidin-1(2H)-yl)-2-oxidotetrahydro-4H-furo[3,2-d][1,3,2]dioxaphosphinin-2-yl)oxy)methyl)benzoate]",
